# Data: patent publication US20050074879A1, “Antisense oligonucleotide modulation of STAT3 expression” (priority 2000, published 2005)
# Oligonucleotides are written 5' to 3', each unit as a sugar letter and its base; * is a phosphorothioate linkage, no mark a phosphodiester; rarer units and linkages stand in square brackets, end groups in braces. Plain capitals give the bases only. e = 2'-O-(2-methoxyethyl) (MOE); [5mC] = 5-methylcytosine; d = 2'-deoxy (DNA)
# Legend:
# [1] = test system: Human STAT3 mRNA; test: Human STAT3 mRNA dose response in A549 cells, real-time PCR with PPS 199 (Table 20); format: cell-based; settings: 16 hours, LIPOFECTIN, − decrease, + increase relative to untreated control cells
# Description: An additional dose-response experiment was preformed in A549 cells. A549 cells were treated with 18.75, 37.5, 75, or 150 nM of oligonucleotide mixed with 3 ug/mL LIPOFECTIN per 100 nM oligonucleotide as described by other examples herein. Control oligonucleotides used were ISIS 129686 (SEQ ID NO: 394) and ISIS 129690 (SEQ ID NO: 393). Untreated cells served as controls. Following 16 hours of treatment, RNA was prepared from cells for subsequent real-time PCR analysis.
# Human STAT3 mRNA expression levels were quantitated by real-time PCR using primer probe set PPS 199 and gene target quantities were normalized using Ribogreen as described in other examples herein. A “−” or “+” designation in the dose response results indicates a decrease or increase of STAT 3 mRNA expression, respectively, relative to untreated control cells.
# [2] = test system: Human STAT3 mRNA; test: Inhibition of human STAT3 mRNA levels in A549 cells, 75 nM, real-time PCR (Table 13); format: cell-based; settings: 75 nM oligonucleotide with LIPOFECTIN, real-time PCR PPS 199, percent inhibition relative to untreated control cells, average of 2 experiments
# Summary of the method: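 A549 cells at 65–75% confluency were transfected in duplicate with 75 nM oligonucleotide plus […] Lipofectin for 4–7 h at 37° C and harvested 16–24 h later. STAT3 mRNA was quantified by real-time RT-PCR with primer-probe set PPS 199 and normalized to RiboGreen total RNA. Inhibition is relative to untreated controls.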
Substance,Percent change of STAT3 expression in A549 cells using PPS 199 ([1]; 18.75 nM oligonucleotide),Percent change of STAT3 expression in A549 cells using PPS 199 ([1]; 37.5 nM oligonucleotide),Percent change of STAT3 expression in A549 cells using PPS 199 ([1]; 75 nM oligonucleotide),Percent change of STAT3 expression in A549 cells using PPS 199 ([1]; 150 nM oligonucleotide),% Inhib (inhibition of human STAT 3 mRNA levels) [2]
337332 (antisense eG*eA*eA*eG*e[5mC]*d[5mC]*d[5mC]*dT*dT*dG*d[5mC]*d[5mC]*dA*dG*d[5mC]*e[5mC]*eA*eT*eG*eT) [compound 337332],−31%,−61%,−77%,−87%,91%
337333 (antisense eA*eA*eG*eG*eA*dG*dA*dA*dG*d[5mC]*d[5mC]*d[5mC]*dT*dT*dG*e[5mC]*e[5mC]*eA*eG*e[5mC]) [compound 337333],−8%,−39%,−59%,−75%,90%
337348 (antisense eT*e[5mC]*e[5mC]*eG*eA*dA*dT*dG*d[5mC]*d[5mC]*dT*d[5mC]*d[5mC]*dT*d[5mC]*e[5mC]*eT*eT*eG*eG) [compound 337348],−26%,−43%,−55%,−77%,92%
